In ChEMBL document CHEMBL1201862, “PubChem BioAssay data set” (2004):
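48-hour exposure; five concentrations; linearly interpolated endpoints. The concentration for 50% growth inhibition is given as GI50.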 Calls of active or inactive are those of the source. No stated cut-off is given here; in the data, active = GI50 up to about 1.1 µM and inactive = higher.

Tests used:
Assay in all cases: NCI-60 cell line screen, 48 h
HCC 2998 = system: HCC 2998
HCT-116 = system: HCT-116
HL-60 = system: HL-60
K562 = system: K562
KM-20L2 = system: KM-20L2
Malme-3M = system: Malme-3M
NCI-H226 = system: NCI-H226
NCI-H460 = system: NCI-H460
OVCAR-8 = system: OVCAR-8
SK-MEL-28 = system: SK-MEL-28
SK-MEL-2 = system: SK-MEL-2
SK-MEL-5 = system: SK-MEL-5
SNB-19 = system: SNB-19
SR = system: SR
SW-620 = system: SW-620
TK-10 = system: TK-10
UACC-62 = system: UACC-62
MDA-MB-231 = system: MDA-MB-231
T47D = system: T47D

SMILES | GI50 (HCC 2998) | GI50 (HCT-116) | GI50 (HL-60) | GI50 (K562) | GI50 (KM-20L2) | GI50 (Malme-3M) | GI50 (NCI-H226) | GI50 (NCI-H460) | GI50 (OVCAR-8) | GI50 (SK-MEL-28) | GI50 (SK-MEL-2) | GI50 (SK-MEL-5) | GI50 (SNB-19) | GI50 (SR) | GI50 (SW-620) | GI50 (TK-10) | GI50 (UACC-62) | GI50 (MDA-MB-231) | GI50 (T47D)
CCC(=O)OC1CCn2c1nc1c2C(=O)C(C)=C(NC(C)=O)C1=N (stereo unspecified) | 3.4 µM (inactive) | 0.849 µM (active) | 0.774 µM (active) | 2.34 µM (inactive) | 1.73 µM (inactive) | 1.43 µM (inactive) | 1.93 µM (inactive) | 1.47 µM (inactive) | 1.04 µM (active) | 2.05 µM (inactive) | 1.75 µM (inactive) | 1.29 µM (inactive) | 5.26 µM (inactive) | 2 µM (inactive) | 0.916 µM (active) | 3.72 µM (inactive) | 1.32 µM (inactive) |  | 
Cn1cnc([N+](=O)[O-])c1Sc1nccn1-c1cccc2ccccc12 | 45.5 µM (inactive) | 19.7 µM (inactive) |  | 19.8 µM (inactive) | 64.1 µM (inactive) | 13.7 µM (inactive) | 18.2 µM (inactive) | 25.7 µM (inactive) | 20.8 µM (inactive) | 22.5 µM (inactive) | 14.1 µM (inactive) | 29.2 µM (inactive) | 94 µM (inactive) | 15.8 µM (inactive) | 26.2 µM (inactive) | 22 µM (inactive) | 16.4 µM (inactive) |  | 
CCN(CC)C(=S)SCC(=O)Nc1nc2c(s1)CCCC2 | > 100 µM (inactive) | 64.3 µM (inactive) | 19.4 µM (inactive) |  | > 100 µM (inactive) | > 100 µM (inactive) | > 100 µM (inactive) | 68.9 µM (inactive) | > 100 µM (inactive) | > 100 µM (inactive) | > 100 µM (inactive) | 26 µM (inactive) | > 100 µM (inactive) | 27.6 µM (inactive) | > 100 µM (inactive) | > 100 µM (inactive) |  |  | 
Cn1cc2ccccc2c1-c1nc(F)nc(OCC(=O)[C@H]2CCC3[C@@H]4CCC5=CC(=O)CC[C@]5(C)C4[C@@H](O)C[C@@]32C)n1 (stereo partly specified) | 25.6 µM (inactive) | 11.1 µM (inactive) | 6.27 µM (inactive) | 2.91 µM (inactive) | 26.1 µM (inactive) | 18.9 µM (inactive) | 19.2 µM (inactive) | 21.7 µM (inactive) | 7.13 µM (inactive) | 11.2 µM (inactive) | 13.2 µM (inactive) | 20.3 µM (inactive) | 19.4 µM (inactive) | 2.86 µM (inactive) | 8.04 µM (inactive) | 23.1 µM (inactive) | 17.1 µM (inactive) |  | 
O=C1CC[C@@H](S(=O)(=O)c2ccccc2)[C@H](/C=C/c2ccccc2)O1 | > 100 µM (inactive) | > 100 µM (inactive) | > 100 µM (inactive) | > 100 µM (inactive) | > 10 µM (inactive) | > 100 µM (inactive) | > 100 µM (inactive) | > 100 µM (inactive) | > 100 µM (inactive) | > 100 µM (inactive) |  | > 100 µM (inactive) | > 100 µM (inactive) | > 100 µM (inactive) | > 100 µM (inactive) | > 100 µM (inactive) | > 100 µM (inactive) |  | 
CN(C)CCS/C(=N\c1ccccc1)N1C=COC=C1 | 24.7 µM (inactive) | 23.6 µM (inactive) | > 77.6 µM (inactive) | > 67.8 µM (inactive) | 47.1 µM (inactive) | 33.7 µM (inactive) | > 46.2 µM (inactive) | > 68.5 µM (inactive) | 37.5 µM (inactive) | 19.5 µM (inactive) | 17.3 µM (inactive) | 19.5 µM (inactive) | > 100 µM (inactive) | 68.9 µM (inactive) | 21.4 µM (inactive) | 47.5 µM (inactive) | 16 µM (inactive) | 20.9 µM (inactive) | 15.3 µM (inactive)
NC(=O)c1ccccc1NC(=O)C(=O)C(C(=O)c1ccc(Cl)c(Cl)c1)C1OC(=O)c2ccccc21 (stereo unspecified) | 49.8 µM (inactive) | 18.7 µM (inactive) | > 100 µM (inactive) | > 100 µM (inactive) | 46.9 µM (inactive) | 14.5 µM (inactive) | 14.9 µM (inactive) |  | 39.6 µM (inactive) |  |  |  | 45 µM (inactive) | 95.9 µM (inactive) | 46.5 µM (inactive) |  | 30.8 µM (inactive) |  | 
O=C(/C=C/c1ccc([N+](=O)[O-])o1)N1CCN(Cc2ccccc2)CC1 | 15.7 µM (inactive) | 10.8 µM (inactive) | 2.56 µM (inactive) | 3.46 µM (inactive) | 10.9 µM (inactive) |  |  | 11.2 µM (inactive) | 12.2 µM (inactive) | 4.89 µM (inactive) |  | 10.2 µM (inactive) | 16.2 µM (inactive) | 13 µM (inactive) | 7.08 µM (inactive) | 23.2 µM (inactive) | 6.82 µM (inactive) |  | 
